Usually ED50 stands for the midpoint of the dose-response relation. A low value points to an effect at a small dose. What is called Tmax is the time from dosing to the highest level. Broadly, the half-life is how long it takes for the measured level to halve.

The nature of series [1]: Solid state properties of the drug substance (hygroscopicity, water solubility). Type of series: physicochemical. The following applies: crystalline powder.
In series [2] the test system is DMBA-induced mammary tumors. The experiment in a line: Inhibition of DMBA-induced mammary tumors in rats (aromatase dependent model). It counts as in vivo. Particulars: Rattus norvegicus.
Series [3] in a line: Pharmacokinetics after oral administration to rats. It counts as in vivo.
In series [4] the test system is estrone, estrone sulfate and estradiol. As to the kind of experiment: Single ascending dose study in women: pharmacodynamics (estrogen suppression). Type of series: in vivo, human. As to the method:
Patients received either 0.1 mg, 1 mg, and 10 mg drug substance containing hard gelatin capsules as described in Example 2 or appropriate matching placebo capsules.
(§1) A […] (MTD) was not reached. […] Table 4 presents the PK parameters based on preliminary analysis of the concentration-time profile obtained from this study.
(§2) There were no changes in bone density by DEXA after 6 months.

The nature of series [5]: Single ascending dose study in women: safety and tolerability. Type of series: in vivo.
From the text: as §1, §2

In series [6] the test system is other enzymes involved in steroid hormone synthesis or metabolism. As to the kind of experiment: Single ascending dose study in women: other steroid hormone enzymes and hormone levels. Type of series: in vivo, human. Particulars: single doses.
A short description of series [7]: Single ascending dose study in pre- and post-menopausal women: pharmacokinetics. Type of series: in vivo, human.
From the text: as §1

For series [8], the system named is androstenedione-induced uterine hypertrophy. The experiment in a line: Inhibition of androstenedione-induced uterine hypertrophy in rats (aromatase dependent model). The following applies: Rattus norvegicus. Type of series: in vivo.

The structures appear in SMILES notation.

Take `N#Cc1ccc(C(F)(c2ccc(C#N)cc2)n2cncn2)cc1` [CGP47645, 4,4′-[fluoro-(1-H-1,2,4-triazol-1-yl)methylene]bisbenzonitrile]: the solubility in water entry in series [1] is on record as “poorly soluble in water”. Besides, in series [2], the ED50 was 10 µg/kg. For the same compound, the “exposure expressed as AUC versus dose” value in series [3] was “proportional to the administered dose”. Also, the “lowest single dose at which maximal estrogen suppression was observed” value in series [4] (post-menopausal women, chemiluminescence or radioimmunoassay) is reported as 0.1 mg. Moreover, in series [4] (postmenopausal women), the “lowest single dose at which transient estrogen suppression was seen” value was 0.01 mg. The “changes in bone density by DEXA” value in series [5] (in vivo) was “no changes”. The “minimal toxic dose (MTD)” value in series [5] (single doses 0.01 mg through 20 mg, women) is given as “not reached”. For the same compound, the “inhibition of other enzymes involved in steroid hormone synthesis or metabolism” value in series [6] was “No inhibition”. The “difference in pharmacokinetics between post- and pre-menopausal women” value in series [7] (0.1 mg cohorts) was “No differences”. For the same compound, in series [7] (female, human, in vivo), the time to peak (Tmax) was 0.5 to 2 h, the half-life was 552 to 648 h and the “median Tmax” value is at most 1 h. In addition, in series [7] (female, human, in vivo, 0.1 mg), the “AUC(0-tlast), mean” value turned out to be 116.2 ng·h/mL and the “Cmax, mean” value worked out at 1.7 ng/mL. Also, the “T1/2, mean” value in series [7] (female, human, in vivo, 1 mg) was 538 h. Also, in series [7] (female, human, in vivo, 20 mg), the “T1/2, mean” value came to 646 h. Further, the Tmax in series [7] (female, human, in vivo, po, 0.03 mg) was 0.6 h. In series [7] (human, in vivo), the “dose proportionality of pharmacokinetics (Cmax & AUC)” value is “dose proportional pharmacokinetics” and the “half life in humans compared with letrozole” value is “longer half life in humans than does letrozole”. The inter-subject variability in series [7] (single doses, women) is 10-30%. The same compound showed a 50% effective dose (ED50) in series [8] of 3 µg/kg.
